Experimental data as given in PubChem BioAssay AID248 (DTP/NCI, 2004).
Inconclusive results and toxic doses are left out. No stated cut-off is given here; in the data, active means T/C of 150% or more; inactive means T/C below 125%.

System: L1210 leukemia ip in BDF1 mice, survival T/C
Assay: NCI In Vivo Anticancer Drug Screen. Data for tumor model L1210 Leukemia (intraperitoneal) in B6D2F1 (BDF1) mice
Settings: endpoint: mean survival time, higher = longer survival
Outline: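 Each compound was tested against a transplantable tumor grown in mice. The endpoint was survival, with treated animals benchmarked against vehicle controls as a simple ratio.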

[1] = dose: 100.0 mg/kg/injection, schedule: Q01DX009 (ip), vehicle: Klucel (hydroxypropylcellulose) (HPC)
[2] = dose: 100.0 mg/kg/injection, schedule: Q04DX003 (ip), vehicle: Klucel (hydroxypropylcellulose) (HPC)
[3] = dose: 200.0 mg/kg/injection, schedule: Q01DX009 (ip), vehicle: Klucel (hydroxypropylcellulose) (HPC)
[4] = dose: 200.0 mg/kg/injection, schedule: Q04DX003 (ip), vehicle: Klucel (hydroxypropylcellulose) (HPC)
[5] = dose: 100.0 mg/kg/injection, schedule: Q01DX001 (ip), vehicle: saline with Tween-80
[6] = dose: 200.0 mg/kg/injection, schedule: Q01DX001 (ip), vehicle: saline with Tween-80
[7] = dose: 400.0 mg/kg/injection, schedule: Q01DX001 (ip), vehicle: saline with Tween-80
[8] = dose: 100.0 mg/kg/injection, schedule: Q01DX001 (ip), vehicle: saline
[9] = dose: 200.0 mg/kg/injection, schedule: Q01DX001 (ip), vehicle: saline
[10] = dose: 400.0 mg/kg/injection, schedule: Q01DX001 (ip), vehicle: saline
[11] = dose: 50.0 mg/kg/injection, schedule: Q01DX001 (ip), vehicle: saline
[12] = dose: 400.0 mg/kg/injection, schedule: Q01DX009 (ip), vehicle: Klucel (hydroxypropylcellulose) (HPC)
[13] = dose: 100.0 mg/kg/injection, schedule: Q01DX009 (ip), vehicle: saline with Tween-80
[14] = dose: 100.0 mg/kg/injection, schedule: Q01DX001 (ip), vehicle: carboxymethylcellulose (CMC)
[15] = dose: 200.0 mg/kg/injection, schedule: Q01DX001 (ip), vehicle: carboxymethylcellulose (CMC)
[16] = dose: 400.0 mg/kg/injection, schedule: Q01DX001 (ip), vehicle: carboxymethylcellulose (CMC)

Measured: T/C

COc1ccc(CNCCNCc2ccc(OC)cc2)cc1
inactive: dose: 50.0 mg/kg/injection, schedule: Q01DX009 (ip), vehicle: Klucel (hydroxypropylcellulose) (HPC) 96 % of control | [1] 100 % of control | dose: 100.0 mg/kg/injection, schedule: Q01DX009 (ip), vehicle: water 98 % of control | [2] 103 % of control | dose: 100.0 mg/kg/injection, schedule: Q04DX003 (ip), vehicle: water 96 % of control | [3] 96 % of control | dose: 200.0 mg/kg/injection, schedule: Q01DX009 (ip), vehicle: water 92 % of control | [4] 94 % of control | dose: 200.0 mg/kg/injection, schedule: Q04DX003 (ip), vehicle: water 100 % of control | dose: 400.0 mg/kg/injection, schedule: Q01DX009 (ip), vehicle: water 89 % of control | dose: 400.0 mg/kg/injection, schedule: Q04DX003 (ip), vehicle: water 100 % of control

CCOC(=O)c1c[nH]c2cc(OCC(C)C)c(OCC(C)C)cc2c1=O
inactive: [5] 104 % of control | [6] 100 % of control | [7] 86 % of control

CC(=O)OCc1ccnc2ccc(OC(C)=O)cc12
inactive: [8] 100 % of control | [9] 98 % of control | [10] 96 % of control

N#Cc1ccc(S(N)(=O)=O)cc1
inactive: [8] 100 % of control | dose: 100.0 mg/kg/injection, schedule: Q01DX009 (ip), vehicle: acetone 98 % of control | dose: 100.0 mg/kg/injection, schedule: Q04DX003 (ip), vehicle: acetone 96 % of control | [9] 94 % of control | dose: 200.0 mg/kg/injection, schedule: Q04DX003 (ip), vehicle: acetone 94 % of control | [10] 120 % of control | dose: 400.0 mg/kg/injection, schedule: Q04DX003 (ip), vehicle: acetone 100 % of control

CC1=NN(C)C(=O)C1
inactive: [11] 103 % of control | [8] 103 % of control | [9] 103 % of control | [10] 103 % of control

O=C(Nc1cccc2c(NC(=O)c3ccccc3)cccc12)c1ccccc1
inactive: [5] 92 % of control | [6] 91 % of control | [7] 89 % of control

CC(=O)c1ccc(CC23CC4CC(CC(C4)C2)C3)cc1
inactive: [1] 99 % of control | [3] 90 % of control | [12] 94 % of control

Cn1c(NCC[N+](C)(C)C)nc2ncncc21
inactive: dose: 15.0 mg/kg/injection, schedule: Q01DX001 (ip), vehicle: saline 90 % of control | dose: 30.0 mg/kg/injection, schedule: Q01DX001 (ip), vehicle: saline 93 % of control | dose: 60.0 mg/kg/injection, schedule: Q01DX001 (ip), vehicle: saline 95 % of control

O=[N+]([O-])C1=C(c2ccccc2)C(c2ccccc2)(c2ccccc2)N=N1
inactive: [8] 100 % of control | [9] 90 % of control | [10] 88 % of control

CC1CCCC2C(=O)CCC(C(C)(C)O)C12C (stereo unspecified)
inactive: [13] 91 % of control | dose: 100.0 mg/kg/injection, schedule: Q04DX003 (ip), vehicle: saline with Tween-80 92 % of control | dose: 200.0 mg/kg/injection, schedule: Q01DX009 (ip), vehicle: saline with Tween-80 95 % of control | dose: 200.0 mg/kg/injection, schedule: Q04DX003 (ip), vehicle: saline with Tween-80 92 % of control | dose: 400.0 mg/kg/injection, schedule: Q01DX009 (ip), vehicle: saline with Tween-80 93 % of control | dose: 400.0 mg/kg/injection, schedule: Q04DX003 (ip), vehicle: saline with Tween-80 92 % of control

CCCN(CCC)NC(=O)c1ccc(N=NN(C)C)cc1
inactive: dose: 25.0 mg/kg/injection, schedule: Q01DX001 (ip), vehicle: other 106 % of control | dose: 50.0 mg/kg/injection, schedule: Q01DX001 (ip), vehicle: other 98 % of control | dose: 100.0 mg/kg/injection, schedule: Q01DX001 (ip), vehicle: other 106 % of control | [5] 101 % of control

O=P(Cc1ccccc1)(OCCCl)Oc1ccccc1 (stereo unspecified)
inactive: [1] 102 % of control | [2] 91 % of control | [3] 98 % of control | [4] 96 % of control | [12] 96 % of control | dose: 400.0 mg/kg/injection, schedule: Q04DX003 (ip), vehicle: Klucel (hydroxypropylcellulose) (HPC) 96 % of control

CCCCCCCCCCNC(=O)C[n+]1cccc(C(=O)N(CC)CC)c1
inactive: dose: 6.25 mg/kg/injection, schedule: Q04DX003 (ip), vehicle: saline 94 % of control | dose: 12.5 mg/kg/injection, schedule: Q04DX003 (ip), vehicle: saline 96 % of control | dose: 25.0 mg/kg/injection, schedule: Q04DX003 (ip), vehicle: saline 93 % of control

CC#CC(O)(C(=O)OC)c1ccccc1 (stereo unspecified)
inactive: [14] 94 % of control | [15] 102 % of control | [16] 108 % of control

CC(Cl)CCN1CCCCC1 (stereo unspecified)
inactive: [11] 104 % of control

NC(N)=NNc1ccccc1
inactive: dose: 25.0 mg/kg/injection, schedule: Q01DX009 (ip), vehicle: saline with Tween-80 115 % of control | dose: 50.0 mg/kg/injection, schedule: Q01DX009 (ip), vehicle: saline with Tween-80 107 % of control | dose: 50.0 mg/kg/injection, schedule: Q01DX009 (ip), vehicle: saline 95 % of control | [13] 86 % of control | dose: 100.0 mg/kg/injection, schedule: Q01DX009 (ip), vehicle: saline 97 % of control

COc1ccc(/C=N\NC(=O)c2ccncc2)cc1
inactive: dose: 50.0 mg/kg/injection, schedule: Q04DX002 (ip), vehicle: Klucel (hydroxypropylcellulose) (HPC) 109 % of control | dose: 100.0 mg/kg/injection, schedule: Q04DX002 (ip), vehicle: Klucel (hydroxypropylcellulose) (HPC) 113 % of control | dose: 200.0 mg/kg/injection, schedule: Q04DX002 (ip), vehicle: Klucel (hydroxypropylcellulose) (HPC) 106 % of control | dose: 400.0 mg/kg/injection, schedule: Q04DX002 (ip), vehicle: Klucel (hydroxypropylcellulose) (HPC) 118 % of control

O=C(Nc1cccc2ccccc12)c1ccc(Cl)c(Cl)c1
inactive: [1] 104 % of control | [3] 100 % of control | [12] 98 % of control

Clc1ccc2c(c1)-c1ccccc1C1=NCCN12
inactive: dose: 5.0 mg/kg/injection, schedule: Q01DX009 (ip), vehicle: Klucel (hydroxypropylcellulose) (HPC) 95 % of control | dose: 10.0 mg/kg/injection, schedule: Q01DX009 (ip), vehicle: Klucel (hydroxypropylcellulose) (HPC) 101 % of control | dose: 10.0 mg/kg/injection, schedule: Q04DX003 (ip), vehicle: Klucel (hydroxypropylcellulose) (HPC) 101 % of control | dose: 20.0 mg/kg/injection, schedule: Q04DX003 (ip), vehicle: Klucel (hydroxypropylcellulose) (HPC) 110 % of control

CCCc1ccc(OCC(=O)O)c(OC)c1
inactive: dose: 75.0 mg/kg/injection, schedule: Q01DX001 (ip), vehicle: acetone 93 % of control | dose: 150.0 mg/kg/injection, schedule: Q01DX001 (ip), vehicle: acetone 92 % of control | dose: 300.0 mg/kg/injection, schedule: Q01DX001 (ip), vehicle: acetone 88 % of control

COc1cc2c(cc1OC)C1(CCBr)C3CC4C(=CCOC5CC(=O)N2C1C54)CN3C(=O)Cc1ccccc1 (stereo unspecified)
inactive: dose: 75.0 mg/kg/injection, schedule: Q01DX001 (ip), vehicle: saline 107 % of control

Cc1ccc(S(=O)(=O)Nc2ccc(OS(=O)(=O)c3ccc(C)cc3)cc2)cc1
inactive: [14] 108 % of control | [15] 100 % of control | [16] 100 % of control

C=C(C)C1(CC(C)C)C(=O)NC(=S)NC1=O
inactive: dose: 9.5 mg/kg/injection, schedule: Q01DX001 (ip), vehicle: other 100 % of control | dose: 19.0 mg/kg/injection, schedule: Q01DX001 (ip), vehicle: other 96 % of control | dose: 38.0 mg/kg/injection, schedule: Q01DX001 (ip), vehicle: other 96 % of control

Cc1ccc(C(=O)c2ccc([N+](=O)[O-])cc2)cc1
inactive: [11] 103 % of control | [8] 101 % of control | [9] 92 % of control | [10] 114 % of control

CN(C)Cc1cc(C(C)(C)C)ccc1-c1ccc(C(C)(C)C)cc1CN(C)C
inactive: dose: 12.5 mg/kg/injection, schedule: Q01DX009 (ip), vehicle: gum acacia 91 % of control | dose: 25.0 mg/kg/injection, schedule: Q01DX009 (ip), vehicle: gum acacia 96 % of control | dose: 50.0 mg/kg/injection, schedule: Q01DX009 (ip), vehicle: gum acacia 86 % of control
